Laboratory results taken from publication PMC5601738, “Facile total synthesis of lysicamine and the anticancer activities of the Ru^II, Rh^III, Mn^II and Zn^II complexes of lysicamine” (Oncotarget, 2017).
Several values for one entry are separate records, joined by “and”; a condition that tells them apart may be missing. Equal entries are not always repeated. Where two headings read alike, the source gives them in different places.

Columns and labels:
NCI-H460 = assay: MTT assay, NCI-H460 cells; format: cell-based, human; settings: 48 h; for IC50: MTT, mean ± SD from five independent experiments
HepG2 = assay: MTT assay, HepG2 cells; settings: for IC50: read-out: IC50 HepG2
[1] = tested on: HL-7702 normal liver cell; assay: MTT assay, HL-7702 normal liver cell; format: cell-based; settings: 48 h; for IC50: MTT, mean ± SD from five independent experiments
HepG2 xenograft = HepG2 xenograft model
BEL-7404 = assay: MTT assay, BEL-7404 cells; format: cell-based, human; settings: 48 h; for IC50: MTT, mean ± SD from five independent experiments
T-24 = assay: MTT assay, T-24 cells; format: cell-based, human; settings: 48 h; for IC50: MTT, mean ± SD from five independent experiments
ct-DNA = assay: CD absorption spectrometry assay with ct-DNA; format: binding; settings: ct-DNA 1×10^−4 M, [DNA]/[compound] 10:0.5 to 10:2.0
pBR322 plasmid DNA = assay: Agarose gel electrophoresis assay with pBR322 plasmid DNA; format: biochemical; settings: pBR322 0.5 μg/μL, TBE buffer pH=8.5, 10 to 100 μM
Description: The DNA cleavage activity of 2, 3 and LY were tested by agarose gel electrophoresis assay using pBR322 plasmid DNA (0.5 μg/μL) in TBE buffer (pH=8.5). […] In contrast, under the same experimental conditions, when the concentration of 2 increased from 10 μM to 50 μM, the mobility of supercoiled DNA (form I) was reduced, but the relaxed form (form II) was not observed. When the concentration of 2 increased further to 70 μM, the form II DNA appeared. Almost all supercoiled DNA (form I) changed to relaxed DNA (form II) when the concentration of 2 reached 90 and 100 μM.
RT-qPCR was performed. The threshold cycle (Ct) values approval no. SCXK 2014-0002 and SYXK 2014-0003), […]
were housed at a sterile environment with conditions of […]
than 3 days before used. Complexes and LYwere all […]
is limited in 1% in final working solutions. KM mice. The large concentration of 2 in 10% (v/v) […]
ct-DNA CD spectrum as control.
The HepG2 xenograft mice were induced by
37 °C in the dark for 4 h.
The percent weight loss or gain was calculated […]
imaging system under a UV-Vis transilluminator.. Percent tumour growth inhibition after initiation of treatment with 2 and cisplatin were calculated by TGI= […]
initial for control group).
Animals were supplied by Guangxi Medical
University Laboratory Animal Centre (Guangxi, China, […]

HepG2 cells = assay: Cell cycle analysis by flow cytometry; format: cell-based, human; settings: HepG2, 24 h
[2] = metal salts 1× 10-4 mol/L, 48 h

Row | Compound | inhibitive ratio NCI-H460 (NCI-H460; 20 μmol/L) | inhibitive ratio Hep-G2 (HepG2; 20 μmol/L, 48 h) | inhibitive ratio HL-7702 ([1]; 20 μmol/L, normal liver cell) | inhibitive ratio BEL-7404 (BEL-7404; 20 μmol/L) | inhibitive ratio T-24 (T-24; 20 μmol/L) | inhibitive ratio NCI-H460 (NCI-H460; metal salts 1× 10-4 mol/L) | inhibitive ratio Hep-G2 (HepG2; [2]) | inhibitive ratio HL-7702 ([1]; metal salts 1× 10-4 mol/L) | inhibitive ratio BEL-7404 (BEL-7404; metal salts 1× 10-4 mol/L) | inhibitive ratio T-24 (T-24; metal salts 1× 10-4 mol/L) | also measured
1 | N.N.[Cl][Pt][Cl] [Cisplatin, cisplatin, reference compound] | 53.88±1.29% | 60.63±0.99% | 68.95±1.42% and 68.9% | 55.15±1.18% | 47.58±2.05% |  |  |  |  |  | IC50 (NCI-H460): 18.3 ± 1.02 µM; IC50 (HepG2; MTT, 48 h, mean ± SD from five independent experiments): 18.5 ± 0.78 µM; IC50 ([1]; normal liver cell): 15.7 ± 1.27 µM; BW% (body weight change) (HepG2 xenograft; 2.0 mg/kg per 2 days): -25.8%; loss in body weight (HepG2 xenograft; 2.0 mg/kg per 2 days): 25.8%; TGI (HepG2 xenograft; 2.0 mg/kg per 2 days i.p.): 83.16%; IC50 (BEL-7404): 12.4 ± 0.38 µM; IC50 (T-24): 28.1 ± 1.88 µM
2 | COc1cc2ccnc3c2c(c1OC)-c1ccccc1C3=O [LY, lysicamine] | 52.85±0.32% | 53.13±1.19% | 45.49±0.78% and 45.5% | 32.27±1.73% | 42.40±2.14% |  |  |  |  |  | IC50 (NCI-H460; Homo sapiens, NCI-H460): 19.14 ± 0.18 µM; change of CD spectrum of ct-DNA / binding (ct-DNA): the binding was weak; IC50 (HepG2; Homo sapiens, HepG2, 48 h): 23.9 ± 0.41 µM; IC50 ([1]; Homo sapiens, L02, normal liver cell): 29.3 ± 0.72 µM; DNA cleavage activity on supercoiled pBR322 DNA (pBR322 plasmid DNA): did not change the supercoiled DNA and its migration rate; effect on cell cycle progression (HepG2 cells): only blocked the cell cycle in the G1 phase; IC50 (BEL-7404; Homo sapiens, BEL-7404): 47.5 ± 1.65 µM; IC50 (T-24; Homo sapiens, T-24): 34.5 ± 1.96 µM
3 | O.O.O.O.O.O.[Mn+2].[O-][Cl+3]([O-])([O-])[O-].[O-][Cl+3]([O-])([O-])[O-] [Mn(ClO4)2·6H2O, reference compound] |  |  |  |  |  | 30.12±0.46% | 18.52±0.67% | 23.06±1.64% | 25.84±1.36% | 24.08±1.86% | 
4 | O.O.O.[Cl][Rh]([Cl])[Cl] [RhCl3·3H2O, reference compound] |  |  |  |  |  | 25.41±1.25% | 24.02±1.02% | 30.12±1.57% | 35.29±0.97% | 27.09±1.11% | 
